Series [1] in a line: in vivo. The settings on record: ICR, mouse, plasma, po, 5 mg/kg.
Series [2] is described as follows: in vivo. To be noted: ICR, mouse, brain/plasma, po, 5 mg/kg.
Series [3] is described as follows: in vivo. The settings on record: ICR, mouse, plasma, po, 5 mg/kg. This is another data set of the same source.
A short description of series [4]: in vivo. To be noted: ICR, mouse, plasma, po, 5 mg/kg. The source holds these as a separate data set.
Series [5] in a line: in vivo. The settings on record: ICR, mouse, plasma, po, 5 mg/kg. This is another data set of the same source.

The values that follow come from ChEMBL document CHEMBL4842381, “A Novel, Selective c-Abl Inhibitor, Compound 5, Prevents Neurodegeneration in Parkinson's Disease” (J Med Chem, 2021).

As a reminder, the Tmax is the time at which the peak concentration occurs. As to `Cc1cn(-c2cc(NC(=O)c3ccc(C)c(Nc4nccc(-c5cccnc5)n4)c3)cc(C(F)(F)F)c2)cn1` [NILOTINIB], the Tmax at 24 h in “in vivo [1]” amounted to 1 h.
Usually AUC(0-inf) stands for total exposure, with the tail of the curve extrapolated. A lower AUC(0-inf) goes with low exposure. By half-life is commonly meant the time needed for the level to fall by half in the phase considered. Read a high half-life as slow decline. As a reminder, the Cmax is the maximum level reached in the sampled fluid or tissue. For the compound `Cc1c(F)cncc1-c1ccc2nc(NC(=O)[C@@H]3C[C@@H]3F)sc2c1`, the Kp uu at 24 h in the series “in vivo [2]” worked out at 0.21. In addition, the AUC(0-inf) at 24 h in “in vivo [3]” is 25000 ng·h/mL. In addition, in “in vivo [4]”, the half-life at 24 h was 108 min. The Tmax at 24 h in “in vivo [1]” is 1.2 h. The same compound yielded a Cmax at 24 h in the series “in vivo [5]” of 4260 ng/mL.
